The record followed here is BindingDB's records for doi:10.1006/bbrc.1993.2130 (National Children's Medical Research Center, 1993).

The test deals with T1, Alpha-1A adrenergic receptor (Homo sapiens, UniProt P35348).
T1 sequence (P35348 whole entry): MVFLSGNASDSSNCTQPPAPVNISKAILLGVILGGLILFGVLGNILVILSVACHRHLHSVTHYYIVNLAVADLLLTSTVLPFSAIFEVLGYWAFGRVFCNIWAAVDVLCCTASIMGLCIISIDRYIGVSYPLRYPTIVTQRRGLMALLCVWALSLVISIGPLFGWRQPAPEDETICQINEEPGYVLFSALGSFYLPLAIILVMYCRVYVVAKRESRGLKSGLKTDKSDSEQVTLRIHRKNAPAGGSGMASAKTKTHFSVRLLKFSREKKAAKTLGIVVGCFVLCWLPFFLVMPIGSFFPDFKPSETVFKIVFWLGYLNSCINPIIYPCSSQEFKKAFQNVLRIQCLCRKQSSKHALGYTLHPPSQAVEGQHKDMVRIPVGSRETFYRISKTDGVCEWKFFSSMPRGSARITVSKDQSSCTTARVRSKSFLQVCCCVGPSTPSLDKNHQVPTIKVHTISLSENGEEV

The term Ki denotes a dissociation constant, usually derived from enzyme kinetics or from competition with a known ligand. Read a low Ki as tighter binding. `COc1ccccc1N1CCN(CCCNc2c(C)c(=O)n(C)c(=O)n2C)CC1` [Urapidil-5-methyl]: the affinity, expressed as Ki, was 4.2 nM. Consider `COc1cccc(OC)c1OCCNCC1Oc2ccccc2OC1c1ccccc1` (stereo not drawn) [NSC_185453], for which the affinity, expressed as Ki, was 0.23 nM. Then `COc1ccc(OC)c(C(O)C(C)N)c1` (stereo not drawn), with greater than 10000 nM.
